Data: article PMC9353477, “A Functional Screening Identifies a New Organic Selenium Compound Targeting Cancer Stem Cells: Role of c‐Myc Transcription Activity Inhibition in Liver Cancer” (Advanced Science, 2022)

What was measured:
[1] = molecular target: T1, truncated c-Myc protein (a.a 354-437) (Homo sapiens, UniProt P01106); experiment: SPR (Biacore S200, CM5 chip); format: binding
T1 construct: bHLH/LZ domain fragment, residues 354-437; purified by DEAE ion exchange; coupled to CM5 chip; no Max present
T1 sequence (P01106 369-452): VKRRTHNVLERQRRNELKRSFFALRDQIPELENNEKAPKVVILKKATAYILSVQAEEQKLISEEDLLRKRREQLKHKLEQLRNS

[2] = in vitro; conditions: human, l02 cells
Description: (§1) The L02 and Hep3B cells were seeded in 96‐well plates (5000 cells per well), 24 h later, the cells were treated with DMSO (Control group) or each small molecule compound (10 µM) for another 48 h. Then cells were treated with CCK‐8 reagent (Dojindo Laboratories, Kumamoto, Japan) and incubated at 37 °C for 2 h. Absorbance at 450 nm was measured by SpectraMax M2e (Molecular devices, San Jose, CA). Five replicate wells for each group and three independent experiments were conducted. The cell viability (%) of each small molecule compound was normalized as the ratio of each compound/DMSO in L02 and Hep3B cells, respectively. The relative cell viability (%) = The cell viability of L02 cells (%) − The cell viability of Hep3B cells (%). […] Given that the common concentration used in in vitro drug screening is 10 µM,^[ [24] ^] therefore, in the three rounds of drug screening, all small molecules are 10 µM. […] A) Flowchart of functional screening. B) Scattered plot showing the cell viability of each small molecule in human normal fetal liver cell L02 and liver cancer Hep3B cells, 48 h after treatment with each compound (10 µM). […] C) Images and statistical histogram of 3D tumor spheroids from Hep3B (cultured for 5 days, followed by treated with 16 candidate compounds (10 µM) for another 3 days). Tumor spheroid was quantified as the total cross‐sectional area of spheroid in each group (area mean), n = 3, Means ± SD, ^* p < 0.05, ^** p < 0.01, Student's t‐test. D) Statistical histogram of the CD13^+CD133^+ population, 48 h after treatment with each candidate compound (10 µM), analyzed by FCM, n = 3, Means ± SD; ^* p < 0.05, ^** p < 0.01; Student's t‐test. E) Representative images of tumorspheres from HCC cells that received a 48‐h pretreatment with each candidate compound (10 µM) before tumorsphere culture. Bars, 1000 µm. Tumorspheres were quantified as the total cross‐sectional area of tumorspheres in each group (area sum), and similarly hereafter unless indicated. Statistical histogram of the tumorsphere size. n = 3, means ± SD, each compound compared with DMSO, ^* p < 0.05, ^** p < 0.01, Student's t‐test. F) Heat maps of functional screening results, shown by the relative value of CD13^+CD133^+ population (D) and tumorsphere size (E), with normalizing the vehicle group as 100%. CU27 chemical structure is shown in the right.

[3] = system: Hep3B; experiment: cells; conditions: 48 h; for viability at 10 µM: Homo sapiens, Hep3B, read-out: Cell viability of Hep3B (Mean of Hep3B/DMSO) (%)
Description: as §1

`C=CCNC(=[Se])NN=C(c1ccccc1)c1ncccn1` [4a, Phenyl‐2‐pyrimidinyl ketone 4‐allyl‐3‐amino selenourea] gave a Kd [1] of 0.562 nM and a viability at 48 h, 10 µM [2] of 79.4%.

Work on `CNC(=O)Nc1ccc(-c2nc(N3CC4CCC(C3)O4)c3cnn(C4CCC5(CC4)OCCO5)c3n2)cc1` [WYE-125132] yielded a viability at 48 h, 10 µM [2] of 45.1% and a viability at 10 µM [3] of 27.2%.

For `O=C1NCCc2[nH]c(-c3ccncc3)cc21` [PHA-767491], the viability at 48 h, 10 µM [2] was 22.2%.

Compound `O=C1NC(=O)/C(=C/c2ccc3nccc(-c4ccncc4)c3c2)S1` [GSK1059615] has a viability at 48 h, 10 µM [2] of 13.5% and a viability at 10 µM [3] of 17.9%.

In the case of `Cc1c(CN2CCN(C(=O)[C@H](C)O)CC2)sc2c(N3CCOCC3)nc(-c3cnc(N)nc3)nc12` [Apitolisib], the viability at 48 h, 10 µM [2] is reported as 37.1% and the viability at 10 µM [3] is reported as 29.4%.

Compound `CC(C)n1nc(-c2cc3cc(O)ccc3[nH]2)c2c(N)ncnc21` [Torkinib] has a viability at 10 µM [3] of 44.8%.

`CCn1c(-c2nonc2N)nc2c(C#CC(C)(C)O)ncc(OC[C@H]3CCCNC3)c21` [GSK690693] gave a viability at 48 h, 10 µM [2] of 49.3% and a viability at 10 µM [3] of 63.8%.

`NC1(Cc2ccc(Cl)cc2)CCN(c2ncnc3[nH]ccc23)CC1` [CCT128930] showed a viability at 10 µM [3] of 34.4%.

In the case of `O=S(=O)(NCCNC/C=C/c1ccc(Br)cc1)c1cccc2cnccc12` [H89 2HCL], the viability at 10 µM [3] is reported as 57%.

In the case of `CCC(=O)N1CCN(c2ccc(-n3c(=O)ccc4cnc5ccc(-c6cnc7ccccc7c6)cc5c43)cc2C(F)(F)F)CC1` [Torin1], the viability at 10 µM [3] is reported as 24%.

In the case of `Cc1[nH]nc2ccc(-c3cncc(OC[C@@H](N)Cc4ccccc4)c3)cc12` [A-674563], the viability at 10 µM [3] is reported as 21.7%.

`c1ccc2c(CCNc3ccc(Nc4ccncc4)cc3)c[nH]c2c1` [JNJ26854165] gave a viability at 48 h, 10 µM [2] of 38% and a viability at 10 µM [3] of 17.7%.

With `CCn1c(=O)c(-c2cc[nH]n2)cc2c(C)nc(N)nc21` [Voxtalisib] the viability at 48 h, 10 µM [2] was 26.9% and the viability at 10 µM [3] was 23.1%.

For `Cn1c(=O)n(-c2ccc(C(C)(C)C#N)cc2)c2c3cc(-c4cnc5ccccc5c4)ccc3ncc21` [Dactolisib], the viability at 48 h, 10 µM [2] was 27.2% and the “Cell viability of Hep3B (Mean of Hep3B/DMSO) (%)” value ([3]; [mut] cells, 10 µM) was 21.03%.

For `COc1ccc(COc2cc3oc(=O)c4cc(C(C)O)ccc4c3cc2OC)cc1` (stereo not drawn) [Palomid529], the viability at 48 h, 10 µM [2] was 58.1% and the viability at 10 µM [3] was 62.4%.
